Holding throughout (type): in vivo
Test [1] concerns hepatitis B virus (HBV). As to the kind of experiment: Liver HBV DNA by quantitative PCR in HBV transgenic mice. As to conditions: female HBV mice; 10 mg/(kg d), per os 14 days.
Test [2] has as its system hepatitis B virus (HBV). The test is described as follows: Liver HBV DNA by Southern blot hybridization in HBV transgenic mice. As to conditions: 10 mg/(kg d). From the text: Animals. Homozygous adult female and male transgenic HBV mice were used (20.6±2.8 g). The mice were originally obtained from Dr. Frank Chisari (Scripps Research Institute, La Jolla, Calif.) (Guidotti L G, Matzke B, Schaller H & Chisari F V. High-level hepatitis B virus replication in transgenic mice. J Virol 1995; 69:6158-6169) and were subsequently raised in the Biosafety Level 3 (BL-3) area of the AAALAC-accredited USU Laboratory Animal Research Center (LARC). The animals were derived from founder 1.3.32 (Guidotti L G, Matzke B, Schaller H & Chisari F V. High-level hepatitis B virus replication in transgenic mice. J Virol 1995; 69:6158-6169). This study was conducted in accordance with the approval of the Institutional Animal Care and Use Committee of Utah State University.
(§1) Experimental design. DCP was administered per os, once daily for 14 days to randomly assigned HBV transgenic mice at 23, 7.3, and 2.3 mg/(kg d). ADV was used as a positive control at 10 mg/(kg d) using the same treatment schedule and vehicle (0.4% CMC). On day 14, mice were euthanized to collect serum and liver samples to perform liver HBV DNA, liver core and serum HBe assays, serum cytokine/chemokine profiles, and IDO metabolite assays.
Liver HBV DNA assays. Southern blot hybridization and quantitative PCR (qPCR) were performed on liver tissues (Morrey J D, Motter N E, Tam B, Lay M & Fairman J. Efficacy of cationic lipid-DNA complexes (CLDC) on hepatitis B virus in transgenic mice. Antiviral Res 2008; 79:71-79). For Southern blot hybridization, the ratio of the viral DNA bands to the transgene band was used to determine the concentration of viral DNA per host DNA. This calculation was based upon the knowledge that there were 1.3 copies of the transgene present per host cell with this line of transgenic mice. The transgene was used as an internal indicator to calculate the pg of HBV DNA per μg of homozygous cellular host DNA. For qPCR, the assay was run with a series of 10-fold dilutions of pooled liver DNA from HBV transgenic mice to obtain a standard curve. Mean C(t) values were obtained for duplicates of each sample. The mean C(t) values of each sample were used to obtain the log relative DNA values using a formula of the fit line of the standard curve.

In a further test the test system is HBe antigen. The test is described as follows: Sera HBeAg ELISA in HBV transgenic mice. The note with it: females; 10 mg/(kg d). The method, then: as §1
Sera HBeAg. Whole blood samples were obtained during necropsy by cardiac puncture, and processed for an HBeAg-specific ELISA (International Immuno Diagnostics, Foster City Calif.) (Money J D, Motter N E, Taro B, Lay M & Fairman J. Efficacy of cationic lipid-DNA complexes (CLDC) on hepatitis B virus in transgenic mice. Antiviral Res 2008; 79:71-79). Using the known PEI (Paul Ehrlich Institute) units for the calibrator, PEI units were formulated for the serial dilutions of the positive serum. A graph was generated, and extrapolation was used to assign a PEI unit value for each sample.
For orientation: An ELISA detects its analyte on a solid surface through an enzyme-linked reagent.

Test [3] deals with hepatitis B core antigen (HBcAg). The test is described as follows: Liver HBcAg assay in HBV transgenic mice. The note with it: 10 mg/(kg d). How it is done:
as §1
Liver HBcAg assay. Liver biopsies were processed for detection of hepatitis B core antigen (HBcAg) (Motley J D, Motter N E, Taro B, Lay M & Fairman J. Efficacy of cationic lipid-DNA complexes (CLDC) on hepatitis B virus in transgenic mice. Antiviral Res 2008; 79:71-79). Three different parameters were obtained from each tissue section. […] The first two parameters were obtained by counting cells surrounding central veins as follows: the total number of cells, the number of cells with stained nuclei, and the number of cells with stained cytoplasms. The identities of the samples were blinded to person counting. The stained nuclei counts or the stained cytoplasm counts were divided by the total cells. Three central vein areas were counted for each slide sample. For the third parameter, a field not in a central vein area was counted for the total number of stained nuclei. One-quarter of the field was counted. Three such fields were counted per liver section. The identity of the samples was blinded to the person reading the slides.

These results are taken from US20120251495A1, “PTERIN BASED THERAPIES FOR INFLAMMATORY CONDITIONS” (priority 2008, published 2012).

Each structure is given as a SMILES string.

As for `CC(C)(C)C(=O)OCOP(=O)(COCCn1cnc2c(N)ncnc21)OCOC(=O)C(C)(C)C` [Adefovir dipivoxil, adefovir dipivoxil, reference compound], the “Log HBV DNA (PCR) versus controls” value in the test on hepatitis B virus (HBV) [1] was “significant treatment decreases”. Further, in the test on hepatitis B virus (HBV) [2] (female), the “Liver HBV DNA (Southern), Female levels (mean ± SEM)” value came out at 3.5 ± 0.55 pg/µg. Also, in the test on hepatitis B virus (HBV) [2] (male), the “Liver HBV DNA (Southern), Male levels (mean ± SEM)” value was determined as 1.5 ± 0.37 pg/µg. In addition, in the test on HBe antigen, the “HBe antigen (ELISA) versus controls” value is given as “significant increase”. The “HBcAg Stained nuclei/total, Female levels (mean ± SEM)” value in test [3] (female) came out at 27.7 ± 3.0. Also, the “HBcAg Stained nuclei/total, Male levels (mean ± SEM)” value in test [3] (male) came out at 14.1 ± 3.5.
